Values after ≈ are worked out from the molar mass of the structure shown. Structures can show the parent of a compound that is named as a salt. Where two headings read alike, the source gives them in different places.
Tests used:
[1] = test system: Escherichia coli ATCC 25922; assay: Evaluation test for disinfecting effect, broth dilution method CLSI(M7-A7)2006; assay type: cell-based
Description: (§1) The following test compounds were examined for the disinfecting activities against Pseudomonas aeruginosa, E.. Coli and staphylococcus aureus, according to a broth dilution method of "CLSI(M7-A7)2006" (Clinical and Laboratory Standards Institute, M7-A7, Methods for Dilution Antimicrobial Susceptibility Tests for Bacteria That Grow Aerobically; Approved Standard-Seventh Edition, 2006),
(§2) • Pseudomonas aeruginosa PAO1 • Pseudomonas aeruginosa ATCC 27853 • Escherichia coli ATCC 25922 • Staphylococcus aureus ATCC 29213 • Staphylococcus aureus Methicillin resistant (MRSA) ATCC 43300
(§3) Each of above-mentioned bacteria was inoculated in a TSB culture medium (Bacto TSB Broth, product of BD) for overnight cultivation at 37°C. The culture solution was applied to a TSB agar plate for about a 20-hour cultivation to form colonies. Three to five colonies were taken from the agar plate, and an average colony of them was inoculated in a 4mL TSB culture medium.. The colony was cultivated at 35°C until the number of microorganisms became 1 × 10^8 to 2 x 10^8 CFU/mL. The number of microorganisms with time was found by measuring changes in absorbency at 590nm of culture solution with time. When the turbidity became equivalent to 0.5 McFarland standard, it was determined that the number of microorganisms reached the target level = 1 × 10^8 to 2 × 10^8 CFU/mL.
(§4) The bacillus culture solution thus obtained was diluted 10-fold within 15 minutes, and a 5µL portion was inoculated in each well of an evaluation 96-well microplate. This 96-well microplate was a sterilized 96-well microplate with U-shaped bottoms (Falcon 35-3918: product of BD), and each well was filled with a 100µL portion of MH culture medium (BBL MH Broth: product of BD). Within 15 minutes after inoculation of the bacillus culture solutions, the test compounds were supplied to the well in a manner of 2-fold graded dilution. The cultivation was then carried out at 37°C for 18 hours.
(§5) The MIC was determined as follows. "S (susceptible)" indicates a concentration which caused 80% or more reduction in the diameter of the aggregation deposited in the bottom of the well, compared to when the test liquid is not used. "R (Resistant)" indicates a concentration that caused less than 80% reduction in diameter. The reduction was measured visually.. "I(Intermediate)" indicates a concentration that cannot be measured visually

[2] = test system: Pseudomonas aeruginosa ATCC 27853; assay: as above; assay type: cell-based
Description: as §1, §2, §3, §4, §5

[3] = test system: Pseudomonas aeruginosa PAO1; assay: as above; assay type: cell-based
Description: as §1, §2, §3, §4, §5

[4] = test system: Staphylococcus aureus ATCC 29213; assay: as above; assay type: cell-based
Description: as §1, §2, §3, §4, §5

[5] = test system: Staphylococcus aureus Methicillin resistant (MRSA) ATCC 43300; assay: as above; assay type: cell-based
Description: as §1, §2, §3, §4, §5

[6] = test system: Porphyromonas gingivalis 381-strain (clinical strain); assay: Evaluation test for biofilm formation inhibition effect against periodontitis pathogenic bacteria (flow cell system, HA disks, turbidity); assay type: cell-based; details: for Mean OD Value: turbidity at 550 nm of biofilm peeled off HA disks; for inhibition at 100 µM: Porphyromonas gingivalis, 336 h, read-out: Biofilm Formation Inhibition Rate(%)
Description: As with Experiment Example 1, using the flow cell system of FIG. 1, an inhibitory effect against biofilm formation by periodontitis pathogenic bacteria was evaluated for each of the amide compounds produced in Production Examples 1, 3, 5, and 6 (Compounds 1a-1, 1b-1, 1c-1, 1c-2).
Periodontitis pathogenic bacteria Porphyromonas gingivalis 381-strain (clinical strain) was used..
A GAM culture medium containing hemin 5µg/L and menadione 1µg/L was used.
The 381-strain was inoculated in the GAM culture medium, and cultivated until stationary phase (OD550=1.8). Then the culture medium was diluted 20-fold by a fresh GAM culture medium containing the above-mentioned substances.
The test liquid was prepared by dissolving 100µM of each of the Compounds 1a-1, 1b-1, 1c-1, or 1c-2 according to Production Examples 1, 3, 5 and 6 and 100µM of Comparative Compounds 1 and 2 as comparative examples in dimethyl sulfoxide (DMSO), and supplying the resulting DMSO solutions to the above-mentioned bacterial suspensions so that the concentration of each compound becomes 0.1%(v/v).
A DMSO not containing the compound was used as a control test liquid.
The glass cell (4) of the flow cell system (see FIG. 1) was replaced with a stainless cell (3 x 7 x 120mm), and 10 hydroxyapatite (HA) disks (6mm in diameter, 1mm in thickness) were placed in the cell. The HA disks had been subjected to salivary treatment overnight. Each of the test liquids and control test liquids was circulated in the system at a flow rate of 8mL/min for 14 days, Note that the test liquids and the control test liquids were replaced with fresh liquids every two days.
After the cultivation, the HA disks were dipped in 300µL of sterile distilled water, and treated by supersonic wave for 30 minutes at 4°C, The biofilms formed in the HA disks were peeled off and suspended in distilled water. Then, 100µL of the suspension liquid was measured for the turbidity with an absorptiometer (C07500 colorimeter, product of Funakoshi) (measurement wavelength = 550 nm).
A mean OD was found based on the resulting OD values, excluding the minimum and maximum values, Also, a mean value of the turbidities for the Control Test Liquids was found in the same manner as the control mean OD value. A biofilm formation inhibition rate (Inhibition Rate) was found by the following formula. Biofilm Formation Inhibition Rate (%) = […] [formula]

[7] = test system: Staphylococcus aureus ATCC 29213; details: Publicly-known data, CLSI(M100-S16)2006 liquid dilution method; cited from earlier work
[8] = ATCC25922, 18 h, read-out: MIC (µg/mL) R
[9] = ATCC25922, 18 h, read-out: MIC (µg/mL) S
[10] = ATCC27853, 18 h, read-out: MIC (µg/mL) R
[11] = ATCC27853, 18 h, read-out: MIC (µg/mL) S
[12] = PAO1, 18 h, read-out: MIC (µg/mL) R
[13] = PAO1, 18 h, read-out: MIC (µg/mL) S
[14] = ATCC29213, 18 h, read-out: MIC (µg/mL) R
[15] = ATCC29213, 18 h, read-out: MIC (µg/mL) S

| SMILES | MIC [1, 8] [µg/mL] | MIC [1, 9] [µg/mL] | MIC [2, 10] [µg/mL] | MIC [2, 11] [µg/mL] | MIC [3, 12] [µg/mL] | MIC [3, 13] [µg/mL] | MIC [4, 14] [µg/mL] | MIC [4, 15] [µg/mL] | MIC ([5]; 18 h, read-out: MIC (µg/mL) R) [µg/mL] | MIC ([5]; 18 h, read-out: MIC (µg/mL) S) [µg/mL] | Mean OD Value ([6]; 100µM, 14 days) | also measured |
| --- | --- | --- | --- | --- | --- | --- | --- | --- | --- | --- | --- | --- |
| CCCCCCCCCC(O)CC(=O)NN1CCCC1 (stereo not shown) [Compound 1c-2, N-(pyrrolidin-1-yl)-3-hydroxy dodecanoyl amide] | – | – | – | – | – | – | – | – | – | – | 0.041 | inhibition at 100 µM ([6]; 100µM, 14 days, relative to control test liquid (Mean Comparison OD Value)): 87.8% |
| CCCCCCCCCCCC(=O)NC1CCNC1 (stereo not shown) [Compound 1a-1, N-(pyrrolidin-3-yl) dodecanoyl amide] | – | – | – | – | – | – | – | – | – | – | 0.49 | inhibition at 100 µM [6]: 37.4% |
| CC[C@H]1OC(=O)[C@H](C)[C@@H](O[C@H]2C[C@@](C)(OC)[C@@H](O)[C@H](C)O2)[C@H](C)[C@@H](O[C@@H]2O[C@H](C)C[C@H](N(C)C)[C@H]2O)[C@](C)(O)C[C@@H](C)CN(C)[C@H](C)[C@@H](O)[C@]1(C)O [AZM, Azithromycin] | – | – | – | – | – | – | – | – | – | – | – | MIC ([1]; ATCC25922, I (Intermediate): concentration that cannot be measured visually, 37°C, 18 hours, read-out: MIC (µg/mL) I): 4 µg/mL (≈ 5.34 µM); MIC ([1]; ATCC25922, R (Resistant): concentration that caused less than 80% reduction in diameter of the aggregation, 37°C, 18 hours, read-out: MIC (µg/mL) R): ≤ 2 µg/mL; MIC ([1]; ATCC25922, S (susceptible): concentration which caused 80% or more reduction in diameter of the aggregation, 37°C, 18 hours, read-out: MIC (µg/mL) S): ≥ 8 µg/mL; MIC ([2]; ATCC27853, I (Intermediate): concentration that cannot be measured visually, 37°C, 18 hours, read-out: MIC (µg/mL) I): 64 µg/mL (≈ 85.4 µM); MIC ([2]; ATCC27853, R (Resistant): concentration that caused less than 80% reduction in diameter of the aggregation, 37°C, 18 hours, read-out: MIC (µg/mL) R): ≤ 32 µg/mL; MIC ([2]; ATCC27853, S (susceptible): concentration which caused 80% or more reduction in diameter of the aggregation, 37°C, 18 hours, read-out: MIC (µg/mL) S): ≥ 128 µg/mL; MIC ([3]; PAO1, I (Intermediate): concentration that cannot be measured visually, 37°C, 18 hours, read-out: MIC (µg/mL) I): 64 µg/mL (≈ 85.4 µM); MIC ([3]; PAO1, R (Resistant): concentration that caused less than 80% reduction in diameter of the aggregation, 37°C, 18 hours, read-out: MIC (µg/mL) R): ≤ 32 µg/mL; MIC ([3]; PAO1, S (susceptible): concentration which caused 80% or more reduction in diameter of the aggregation, 37°C, 18 hours, read-out: MIC (µg/mL) S): ≥ 128 µg/mL; MIC ([4]; ATCC29213, I (Intermediate): concentration that cannot be measured visually, 37°C, 18 hours, read-out: MIC (µg/mL) I): 1 µg/mL (≈ 1.34 µM); MIC ([4]; ATCC29213, R (Resistant): concentration that caused less than 80% reduction in diameter of the aggregation, 37°C, 18 hours, read-out: MIC (µg/mL) R): ≤ 0.5 µg/mL; MIC ([4]; ATCC29213, S (susceptible): concentration which caused 80% or more reduction in diameter of the aggregation, 37°C, 18 hours, read-out: MIC (µg/mL) S): ≥ 2 µg/mL; MIC ([5]; R (Resistant): concentration that caused less than 80% reduction in diameter of the aggregation, 37°C, 18 hours, read-out: MIC (µg/mL) R): ≤ 1020 µg/mL; MIC (µg/mL) from M100-S16 [7]: 0.5 to 2 µg/mL |

More lines, main results first:

| MIC [1, 8] [µg/mL] | MIC [1, 9] [µg/mL] | MIC [2, 10] [µg/mL] | MIC [2, 11] [µg/mL] | MIC [3, 12] [µg/mL] | MIC [3, 13] [µg/mL] | MIC [4, 14] [µg/mL] | MIC [4, 15] [µg/mL] | MIC ([5]; 18 h, read-out: MIC (µg/mL) R) [µg/mL] | MIC ([5]; 18 h, read-out: MIC (µg/mL) S) [µg/mL] | SMILES | Mean OD Value ([6]; 100µM, 14 days) | also measured |
| --- | --- | --- | --- | --- | --- | --- | --- | --- | --- | --- | --- | --- |
| ≤ 4 | ≥ 16 | ≤ 32 | ≥ 128 | ≤ 32 | ≥ 128 | ≤ 4 | ≥ 16 | ≤ 4 | ≥ 16 | CCCCCCCCCCCC(=O)NC1CCNC1 (stereo not shown) [Hydrochloride salt of Compound 1a-1, N-(pyrrolidin-3-yl) dodecanoyl amide] | – | MIC ([1]; ATCC25922, 18 h, read-out: MIC (µg/mL) I): 8 µg/mL; MIC ([2]; ATCC27853, 18 h, read-out: MIC (µg/mL) I): 64 µg/mL; MIC ([3]; PAO1, 18 h, read-out: MIC (µg/mL) I): 64 µg/mL; MIC ([4]; ATCC29213, 18 h, read-out: MIC (µg/mL) I): 8 µg/mL; MIC ([5]; 18 h, read-out: MIC (µg/mL) I): 8 µg/mL |
| ≤ 128 | ≥ 256 | ≤ 512 | ≥ 1020 | ≤ 512 | ≥ 1020 | ≤ 128 | ≥ 256 | ≤ 128 | ≥ 256 | CCCCCCCCCC(=O)NC1CCNCC1 [Hydrochloride salt of Compound 1b-2, N-(piperidin-4-yl) decanoyl amide] | – | – |

Source: patent publication EP2077260B1, “AMIDE COMPOUND OR SALT THEREOF, AND BIOFILM FORMATION INHIBITOR, BIOFILM REMOVER AND BACTERICIDE EACH USING THE AMIDE COMPOUND OR SALT THEREOF” (The University of Tokyo, priority 2006, dated 2008)
